Measurements from ChEMBL document CHEMBL1201862, “PubChem BioAssay data set” (2004).
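Tested at 5 concentrations; 48 h exposure; 96-well plates; endpoints linearly interpolated, else capped at highest concentration. Abbreviation: GI50, concentration required for 50% inhibition of growth.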 Active and inactive are the calls of the source. Cut-off read from the data, not from the text of the source: active = GI50 up to about 1.1 µM and inactive = higher.

Experiments:
Assay in all cases: growth of human tumour cells (NCI), 48 h
CAKI-1 = test system: CAKI-1
HCC 2998 = test system: HCC 2998
UACC-62 = test system: UACC-62
SF-539 = test system: SF-539
TK-10 = test system: TK-10
MCF7 = test system: MCF7
ACHN = test system: ACHN
SNB-19 = test system: SNB-19
MDA-MB-435 = test system: MDA-MB-435
Hs-578T = test system: Hs-578T
NCI/ADR-RES = test system: NCI/ADR-RES
OVCAR-4 = test system: OVCAR-4
NCI-H23 = test system: NCI-H23
786-0 = test system: 786-0
SN12C = test system: SN12C
SK-MEL-5 = test system: SK-MEL-5
KM12 = test system: KM12
HOP-92 = test system: HOP-92
NCI-H522 = test system: NCI-H522
Malme-3M = test system: Malme-3M
SNB-75 = test system: SNB-75
SW-620 = test system: SW-620
UACC-257 = test system: UACC-257
PC-3 = test system: PC-3
NCI-H226 = test system: NCI-H226
OVCAR-5 = test system: OVCAR-5
RXF 393 = test system: RXF 393
MDA-MB-231 = test system: MDA-MB-231
SF-295 = test system: SF-295
IGROV-1 = test system: IGROV-1
HCT-15 = test system: HCT-15
MOLT-4 = test system: MOLT-4
LOX IMVI = test system: LOX IMVI
SK-MEL-28 = test system: SK-MEL-28
HOP-62 = test system: HOP-62
OVCAR-8 = test system: OVCAR-8
SF-268 = test system: SF-268
OVCAR-3 = test system: OVCAR-3
EKVX = test system: EKVX
HCT-116 = test system: HCT-116
BT-549 = test system: BT-549
U-251 = test system: U-251
SR = test system: SR
A549 = test system: A549
M14 = test system: M14
DU-145 = test system: DU-145
UO-31 = test system: UO-31
K562 = test system: K562
NCI-H460 = test system: NCI-H460
CCRF-CEM = test system: CCRF-CEM
T47D = test system: T47D
HT-29 = test system: HT-29
SK-MEL-2 = test system: SK-MEL-2
RPMI-8226 = test system: RPMI-8226
HL-60 = test system: HL-60
COLO 205 = test system: COLO 205
A498 = test system: A498
MDA-N = test system: MDA-N
SK-OV-3 = test system: SK-OV-3

Measured: GI50

CCOP(=O)(OCC)C(=C1C=C(C(C)(C)C)C(=O)C(C(C)(C)C)=C1)P(=O)(OCC)OCC
3.1 µM: HCT-15
inactive: CAKI-1 3.33 µM | HCC 2998 > 10 µM | UACC-62 > 10 µM | SF-539 > 10 µM | TK-10 3.27 µM | MCF7 > 6.84 µM | ACHN 1.94 µM | SNB-19 > 10 µM | MDA-MB-435 > 5.24 µM | Hs-578T > 10 µM | NCI/ADR-RES > 10 µM | OVCAR-4 1.87 µM | NCI-H23 > 10 µM | 786-0 > 4.09 µM | SN12C > 10 µM | SK-MEL-5 > 10 µM | KM12 > 10 µM | HOP-92 2.39 µM | NCI-H522 2.27 µM | Malme-3M 1.82 µM | SNB-75 > 10 µM | SW-620 1.89 µM | UACC-257 > 8.15 µM | PC-3 > 10 µM | NCI-H226 > 10 µM | OVCAR-5 > 10 µM | RXF 393 4.97 µM | MDA-MB-231 > 9.27 µM | SF-295 > 10 µM | IGROV-1 > 10 µM | MOLT-4 2.89 µM | LOX IMVI > 10 µM | SK-MEL-28 > 10 µM | HOP-62 > 10 µM | OVCAR-8 > 10 µM | SF-268 > 10 µM | OVCAR-3 2.41 µM | EKVX > 7.76 µM | HCT-116 2.54 µM | BT-549 2.86 µM | U-251 > 10 µM | SR 3.64 µM | A549 > 10 µM | M14 1.97 µM | DU-145 > 10 µM | UO-31 > 10 µM | K562 > 4.8 µM | NCI-H460 > 10 µM | CCRF-CEM 1.14 µM | T47D 2.13 µM | HT-29 > 10 µM | SK-MEL-2 > 10 µM | RPMI-8226 5.08 µM | HL-60 3.53 µM | COLO 205 1.98 µM | A498 > 10 µM | MDA-N > 5.68 µM | SK-OV-3 > 10 µM

CC(=O)NC1C(OCc2ccccc2)OC(CO)C(O)C1OCC(=O)N1CCCC1C(=O)NC(CCC(=O)NCCCCCNc1c2ccccc2nc2cccc([N+](=O)[O-])c12)C(N)=O (stereo not drawn)
active: CAKI-1 0.0262 µM | HCC 2998 0.00706 µM | UACC-62 0.0225 µM | SF-539 0.0456 µM | TK-10 0.0508 µM | MCF7 0.003 µM | ACHN 0.00865 µM | SNB-19 0.028 µM | MDA-MB-435 0.0154 µM | Hs-578T 0.0345 µM | NCI/ADR-RES 0.0726 µM | OVCAR-4 0.0982 µM | NCI-H23 0.0336 µM | 786-0 0.0131 µM | SN12C 0.011 µM | SK-MEL-5 0.00853 µM | KM12 0.02 µM | HOP-92 0.0252 µM | NCI-H522 0.0353 µM | Malme-3M 0.0188 µM | SNB-75 0.145 µM | SW-620 0.00399 µM | UACC-257 0.0481 µM | PC-3 0.00321 µM | NCI-H226 0.114 µM | OVCAR-5 0.0231 µM | RXF 393 0.00938 µM | MDA-MB-231 0.0175 µM | SF-295 0.048 µM | IGROV-1 0.232 µM | MOLT-4 0.0561 µM | LOX IMVI 0.166 µM | SK-MEL-28 0.0307 µM | HOP-62 0.017 µM | OVCAR-8 0.00497 µM | SF-268 0.0201 µM | OVCAR-3 0.0301 µM | EKVX 0.148 µM | HCT-116 0.00433 µM | BT-549 0.0524 µM | U-251 0.0108 µM | SR 0.281 µM | A549 0.0134 µM | M14 0.0228 µM | DU-145 0.0192 µM | UO-31 0.0422 µM | K562 0.00366 µM | NCI-H460 0.00125 µM | CCRF-CEM 0.07 µM | T47D 0.578 µM | HT-29 0.00125 µM | SK-MEL-2 0.019 µM | RPMI-8226 0.00331 µM | HL-60 0.0221 µM | COLO 205 0.0144 µM | A498 0.0568 µM | MDA-N 0.019 µM | SK-OV-3 0.0869 µM
0.0164 µM: HCT-15
